Columns and labels:
Assay in all cases: relative viability (nuclei count vs DMSO), 5 days (fraction); higher = more cells survive
[1] = compound: CC1=C(N=C(N=C1N)[C@H](CC(=O)N)NC[C@@H](C(=O)N)N)C(=O)N[C@@H]([C@H](C2=CN=CN2)OC3C(C(C(C(O3)CO)O)O)OC4C(C(C(C(O4)CO)O)OC(=O)N)O)C(=O)N[C@H](C)[C@H]([C@H](C)C(=O)N[C@@H]([C@@H](C)O)C(=O)NCCC5=NC(=CS5)C6=NC(=CS6)C(=O)NCCC[S+](C)C)O [Bleomycin] + O=C(CCCCCCC(=O)Nc1ccccc1)NO [Vorinostat] (partner 1 µM); conditions: main component drawn
Method in brief: (§1)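 Cells from lung cancer lines were seeded into 1536-well plates and, one day later, dosed by pin tool. Treatments were either a single drug or a fixed dose of an anchor drug with five library-drug doses (not always all listed) in √10 steps. After 5 days, nuclei were stained in a one-step fixation (final 0.05% Triton X-100, 1% formaldehyde, 1 ug/ml Hoechst) and counted on 4× images, and relative viability is the treated-to-vehicle nuclei ratio, as the median of duplicate plates.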

[2] = compound: COc1cc([C@@H]2c3cc4c(cc3[C@@H](O[C@@H]3O[C@@H]5CO[C@@H](C)O[C@H]5[C@H](O)[C@H]3O)[C@H]3COC(=O)[C@H]23)OCO4)cc(OC)c1O [Etoposide] + Cc1cc(Nc2cc(N3CCN(C)CC3)nc(Sc3ccc(NC(=O)C4CC4)cc3)n2)n[nH]1 [Tozasertib] (partner 0.1 µM)
Method in brief: as §1

[3] = compound: COc1cc([C@@H]2c3cc4c(cc3[C@@H](O[C@@H]3O[C@@H]5CO[C@@H](C)O[C@H]5[C@H](O)[C@H]3O)[C@H]3COC(=O)[C@H]23)OCO4)cc(OC)c1O [Etoposide] + CCNC(=O)c1noc(-c2cc(C(C)C)c(O)cc2O)c1-c1ccc(CN2CCOCC2)cc1 [Luminespib] (partner 0.01 µM)
Method in brief: as §1

[4] = compound: COc1cc([C@@H]2c3cc4c(cc3[C@@H](O[C@@H]3O[C@@H]5CO[C@@H](C)O[C@H]5[C@H](O)[C@H]3O)[C@H]3COC(=O)[C@H]23)OCO4)cc(OC)c1O [Etoposide] + O=C(c1cc(Cc2n[nH]c(=O)c3ccccc23)ccc1F)N1CCN(C(=O)C2CC2)CC1 [Olaparib] (partner 8 µM)
Method in brief: as §1

Cell Line	relative viability ([1]; first compound 0.01 µM)	relative viability ([1]; first compound 0.03162 µM)	relative viability ([1]; first compound 0.1 µM)	relative viability ([1]; first compound 0.3162 µM)	relative viability ([1]; first compound 1 µM)	relative viability ([2]; first compound 0.01 µM)	relative viability ([2]; first compound 0.03162 µM)	relative viability ([2]; first compound 0.1 µM)	relative viability ([2]; first compound 0.3162 µM)	relative viability ([2]; first compound 1 µM)	relative viability ([3]; first compound 0.01 µM)	relative viability ([3]; first compound 0.03162 µM)	relative viability ([3]; first compound 0.1 µM)	relative viability ([3]; first compound 0.3162 µM)	relative viability ([3]; first compound 1 µM)	relative viability ([4]; first compound 0.01 µM)	relative viability ([4]; first compound 0.03162 µM)	relative viability ([4]; first compound 0.1 µM)	relative viability ([4]; first compound 0.3162 µM)	relative viability ([4]; first compound 1 µM)
SW 900	0.403	0.513	0.427	0.207	0.217	0.459	0.666	0.55	0.341	0.224	0.185	0.21	0.168	0.175	0.153	0.913	0.924	0.968	0.359	0.224
NCI-H3122	1.15	0.882	0.823	0.517	0.334	0.441	0.324	0.262	0.281	0.159	0.072	0.0992	0.0664	0.116	0.076	0.456	0.587	0.634	0.297	0.21
NCI-H1755	0.606	0.736	0.714	0.521	0.636	0.57	0.577	0.565	0.483	0.44	0.481	0.415	0.45	0.483	0.277	0.838	0.945	0.791	0.799	0.422
LOU-NH91	0.718	0.544	0.508	0.387	0.345	0.713	0.673	0.566	0.554	0.341	0.318	0.38	0.306	0.311	0.284	0.893	0.905	0.824	0.651	0.383
NCI-H322M	0.815	0.888	0.818	0.577	0.647	0.484	0.47	0.423	0.441	0.425	0.789	0.846	0.553	0.486	0.392	0.781	0.764	0.725	0.548	0.508
HCC-827	0.857		0.736	0.585	0.207	0.388	0.453	0.433	0.192	0.173	0.283	0.795	0.204	0.315	0.175	0.685	0.623	0.43	0.16	0.164
SW 1573	0.609	0.447	0.481	0.271	0.187	0.163	0.133	0.164	0.156	0.0887	0.131	0.164	0.355	0.152	0.0996	0.45	0.397	0.395	0.16	0.0987
NCI-H1975	0.482	0.514	0.386	0.215	0.162	0.721	0.67	0.785	0.495	0.197	0.34	0.199	0.125	0.242	0.199	0.688	1.02	0.881	0.487	0.252

Source: the supplement of paper PMC10307832
